“Also recorded” adds a separate entry of the source. Where a name gives a salt, the structure may show the parent alone.
How the values were obtained:
Type in all cases: in vivo
[1] = tested on: female NMRI mice; experiment: Sedative effect (orientation hypermotility); conditions: for Sedative effect R.A. (relative activity): relative to Clozapin (1.00); for Sedative effect (in words): discussion of Table 1
Method: The substances are administered orally to groups of 4×3 or 8×3 female NMRI mice. The orientation hypermotility induced by a new environment is determined photoelectrically, 30 minutes after the administration of the substances, for a period of 30 minutes.

[2] = tested on: female NMRI mice; experiment: Analgesic effect (D'Amour and Smith tail-flick method); conditions: for Analgesic effect ED 100%: intraperitoneal, mice, dose lengthening tail-flick reaction time by 100%, 30 minutes after administration; for Analgesic effect R.A. (relative activity): relative to Clozapin (1.00); for Analgesic effect (in words): discussion of Table 1
Method: The analgesic effect is determined by means of the D'Amour and Smith (1941) tail-flick method. In this, the substances are administered intraperitoneally to groups of 10 female NMRI mice. The pain reaction is triggered 30 minutes after administration. The reaction time, until the tail is flicked out of the way after exposure to a focused light beam, is measured.

[3] = tested on: female Sprague-Dawley rats; experiment: Apomorphine-antagonistic effect (jaw movements, mandibulogram); conditions: for Apomorphine antagonism R.A. (relative activity): relative to Clozapin (1.00)
Method: 4. Apomorphine-antagonistic effect
Jaw motions are triggered in groups of 4-6 female Sprague-Dawley rats by subcutaneous administration of 1.5 mg of apomorphine/kg, and are recorded by means of implanted electrodes (Kubacki mandibulogram, 1978) .

[4] = tested on: female NMRI mice; experiment: Anti-cholinergic effect (protection against death from Physostigmin)
Method: 3. Anti-cholinergic effect
A lethal dose (0.825 mg/kg) of Physostigmin is administered subcutaneously to groups of 10 female NMRI mice. The test substances are administered orally 30 minutes before administering the Physostigmin.

SMILES | Sedative effect R.A. (relative activity) [1] | Analgesic effect ED 100% [2] [mg/kg] | Analgesic effect R.A. (relative activity) [2] | Apomorphine antagonism R.A. (relative activity) [3] | further results
CN1CCN(C2=Nc3cc(Cl)ccc3Nc3ccccc32)CC1 [Clozapin, reference compound] | 1.00 | 2.08 | 1.00 | 1.00 | –
Cc1ccc2c(c1)N=C(N1CCN(C)CC1)c1ccccc1/C2=C/C#N [13a trans-isomer, trans-3-methyl-11-cyanomethylene-6-(4-methylpiperazin-1-yl)-morphanthridine] | – | 68.1 | – | – | –
C[N+]1([O-])CCN(C2=Nc3ccccc3/C(=C/C#N)c3ccccc32)CC1 [67 cis-isomer, cis-11-cyanomethylene-6-(4-methyl-4-oxy-piperazin-1-yl)-morphanthridine] | 0.26 | > 46.4 | < 0.04 | < 0.08 | –
C[N+]1([O-])CCN(C2=Nc3ccccc3/C(=C\C#N)c3ccccc32)CC1 [67 trans-isomer, t rans-11-cyanomethylene-6-(4-methyl-4-oxy-piperazin-1-yl)-morphanthridine] | 0.04 | > 100 | < 0.02 | 0.32 | –
Cc1ccc2c(c1)N=C(N1CCN(C)CC1)c1ccccc1C2=CC#N (mixture of isomers) [13a cis-trans M, cis,trans-3-Methyl-11-cyanomethylene-6-(4-methylpiperazin-1-yl)-morphanthridine] | – | 5.17 | – | – | –
N#CC=C1c2ccccc2N=C(NCCN2CCCCC2)c2ccccc21 (mixture of isomers) [38 cis-trans M, cis,trans-11-Cyanomethylene-6-(2-piperidin-1-yl-ethylamino)-morphanthridine.1/2H2 O] | 2.94 | > 10 | – | 0.17 | –
C[N+]1([O-])CCN(C2=Nc3ccccc3C(=CC#N)c3ccccc32)CC1 (mixture of isomers) [67 cis-trans M, cis,trans-11-Cyanomethylene-6-(4-methyl-4-oxypiperazin-1-yl)-morphanthridine.2H2 O] | 0.33 | > 46.4 | < 0.04 | 0.09 | –
Cc1ccc2c(c1)C(=CC#N)c1ccccc1C(N1CCN(C)CC1)=N2 (mixture of isomers) [13b cis-trans M, cis,trans-2-Methyl-11-cyanomethylene-6-(4-methyl-piperazin-1-yl)-morphanthridine] | – | 10 | – | – | –
N#CC=C1c2ccccc2N=C(N2CCCNCC2)c2ccccc21 (mixture of isomers) [32 cis-trans M, cis,trans-11-Cyanomethylene-6-homopiperazin-1-yl-morphanthridine.HCl.H2 O] | > 0.22 | 46.4 | 0.04 | < 0.08 | –
CN1CCN(C2=Nc3ccccc3Cc3ccccc32)CC1 [Perlapin, reference compound] | 2.31 | – | < 0.10 | 0.37 | –
CN1CCN(C2=Nc3ccccc3/C(=C/C#N)c3ccccc32)CC1 [1 cis-isomer, cis-11-cyanomethylene-6-(4-methylpiperazin-1-yl)-morphanthridine] | – | 31.6 | – | – | Anti-cholinergic effect (in words) ([4]; discussion of Table 1, Physostigmin antagonism): approximately comparable anti-cholinergic effect
CCN1CCN(C2=Nc3ccccc3C(=CC#N)c3ccccc32)CC1 (mixture of isomers) [31 cis-trans M, cis,trans-11-Cyanomethylene-6-(4-ethyl-piperazin-1-yl)-morphanthridine] | – | > 10 | – | – | –
CN1CCN(C2=Nc3ccccc3C(=CC#N)c3ccccc32)CC1 [1 cis-trans M, cis- and trans-11-Cyanomethylene-6-(4-methyl-piperazin-1-yl)-morphanthridine] | – | 46.4 | – | – | Sedative effect (in words) ([1]; listed as Example 1 (cis-trans mixture)): relatively strong sedative effects; also recorded: more strongly sedative; Analgesic effect (in words) [2]: not analgesically active; ED50 ([4]; Mus musculus, read-out: Anti-cholinergic effect ED 50%, oral, 30 minutes before Physostigmin 0.825 mg/kg subcutaneous, mice, dose protecting 50% of the animals against death): 6.26 mg/kg; Apomorphine-antagonistic effect (in words) ([3]; discussion of Table 1): somewhat weaker than that of Clozapin
Cc1ccc2c(c1)N=C(N1CCN(C)CC1)c1ccccc1/C2=C\C#N [13a cis-isomer, cis-3-methyl-11-cyanomethylene-6-(4-methyl-piperazin-1-yl)-morphanthridine] | – | 0.74 | – | – | Sedative effect (in words) [1]: responsible for the strong sedative and strong analgesic effects; Analgesic effect (in words) [2]: An analgesic effect is found; also recorded: responsible for the strong sedative and strong analgesic effects
CCN1CCN(C2=Nc3ccccc3/C(=C\C#N)c3ccccc32)CC1 [31 trans-isomer, trans-11-cyanomethylene-6-(4-ethyl-piperazin-1-yl)-morphanthridine] | – | > 46.4 | – | – | –
CN1CCN(C2=Nc3ccccc3/C(=C\C#N)c3ccccc32)CC1 [1 trans-isomer, trans-11-cyanomethylene-6-(4-methyl-piperazin-1-yl)-morphanthridine] | – | > 21.5 | – | – | –

— patent US4388237A, “6(1-Piperazinyl), piperidino and (1(homopiperazinyl)11-cyanomethylene morphanthridines” (BASF Aktiengesellschaft, priority 1979, dated 1983)
